# Results from ChEMBL document CHEMBL1133391, “Synthesis and antibacterial activity of 2alpha-functionalized 1beta-methylcarbapenems related to KR-21012” (Bioorg Med Chem Lett, 2000).
# Tests used:
# Klebsiella aerogenes = assay: Compound was evaluated for in vitro antibacterial activity against Klebsiella aerogenes 1522 E strain by agar dilution method; type: functional
# Escherichia coli [1] = assay: Compound was evaluated for in vitro antibacterial activity against Escherichia coli 078 strain by agar dilution method; type: functional
# Klebsiella oxytoca = assay: Compound was evaluated for in vitro antibacterial activity against Klebsiella oxytoca 1082 E strain by agar dilution method; type: functional
# Staphylococcus aureus [2] = assay: Compound was evaluated for in vitro antibacterial activity against Staphylococcus aureus SG511 strain by agar dilution method; type: functional
# Enterococcus faecium = assay: Compound was evaluated for in vitro antibacterial activity against Streptococcus faecium MD strain by agar dilution method; type: functional
# Streptococcus pyogenes = assay: Compound was evaluated for in vitro antibacterial activity against Streptococcus pyogenes 77A strain by agar dilution method; type: functional
# Staphylococcus aureus [3] = assay: Compound was evaluated for in vitro antibacterial activity against Staphylococcus aureus 285 strain by agar dilution method; type: functional
# Pseudomonas aeruginosa [4] = assay: Compound was evaluated for in vitro antibacterial activity against Pseudomonas aeruginosa 1771 M strain by agar dilution method; type: functional
# Salmonella typhimurium = assay: Compound was evaluated for in vitro antibacterial activity against Salmonella Typhimurium by agar dilution method; type: functional, Salmonella enterica subsp. enterica serovar Typhimurium; settings: Salmonella enterica
# Enterobacter cloacae = assay: Compound was evaluated for in vitro antibacterial activity against Enterobacter cloacae P99 strain by agar dilution method; type: functional
# Pseudomonas aeruginosa [5] = assay: Compound was evaluated for in vitro antibacterial activity against Pseudomonas aeruginosa 1771 strain by agar dilution method; type: functional
# Escherichia coli [6] = assay: Compound was evaluated for in vitro antibacterial activity against Escherichia coli 1507 E strain by agar dilution method; type: functional
structure (smiles),measurement,setting,value
C[C@H]1C([C@H](O)C2CCCC2)=C(C(=O)[O-])N2C(=O)[C@H]([C@@H](C)O)C12.[Na+] (some centres not stated),MIC,Klebsiella aerogenes,1.56 µg/mL
same,MIC,Escherichia coli [1],0.195 µg/mL
same,MIC,Klebsiella oxytoca,3.12 µg/mL
same,MIC,Staphylococcus aureus [2],0.098 µg/mL
same,MIC,Enterococcus faecium,0.781 µg/mL
same,MIC,Streptococcus pyogenes,0.013 µg/mL
same,MIC,Staphylococcus aureus [3],0.098 µg/mL
same,MIC,Pseudomonas aeruginosa [4],0.781 µg/mL
same,MIC,Salmonella typhimurium,0.195 µg/mL
same,MIC,Enterobacter cloacae,6.25 µg/mL
same,MIC,Pseudomonas aeruginosa [5],100 µg/mL
same,MIC,Escherichia coli [6],0.195 µg/mL
CC(C)[C@H](O)C1=C(C(=O)[O-])N2C(=O)[C@H]([C@@H](C)O)C2[C@H]1C.[Na+] (some centres not stated),MIC,Klebsiella aerogenes,12.5 µg/mL
same,MIC,Escherichia coli [1],1.56 µg/mL
same,MIC,Klebsiella oxytoca,25 µg/mL
same,MIC,Staphylococcus aureus [2],0.781 µg/mL
same,MIC,Enterococcus faecium,12.5 µg/mL
same,MIC,Streptococcus pyogenes,0.025 µg/mL
same,MIC,Staphylococcus aureus [3],0.781 µg/mL
same,MIC,Pseudomonas aeruginosa [4],1.56 µg/mL
same,MIC,Salmonella typhimurium,0.781 µg/mL
same,MIC,Enterobacter cloacae,12.5 µg/mL
same,MIC,Pseudomonas aeruginosa [5],100 µg/mL
same,MIC,Escherichia coli [6],0.391 µg/mL
CC[C@@H](O)C1=C(C(=O)[O-])N2C(=O)[C@H]([C@@H](C)O)C2[C@H]1C.[Na+] (some centres not stated),MIC,Klebsiella aerogenes,0.391 µg/mL
same,MIC,Escherichia coli [1],0.098 µg/mL
same,MIC,Klebsiella oxytoca,3.12 µg/mL
same,MIC,Staphylococcus aureus [2],0.098 µg/mL
same,MIC,Enterococcus faecium,3.12 µg/mL
same,MIC,Streptococcus pyogenes,0.625 µg/mL
same,MIC,Staphylococcus aureus [3],0.098 µg/mL
same,MIC,Pseudomonas aeruginosa [4],1.56 µg/mL
same,MIC,Salmonella typhimurium,0.391 µg/mL
same,MIC,Enterobacter cloacae,0.781 µg/mL
same,MIC,Pseudomonas aeruginosa [5],100 µg/mL
same,MIC,Escherichia coli [6],0.098 µg/mL
C[C@H]1C([C@H](O)C(C)(C)C)=C(C(=O)[O-])N2C(=O)[C@H]([C@@H](C)O)C12.[Na+] (some centres not stated),MIC,Klebsiella aerogenes,6.25 µg/mL
same,MIC,Escherichia coli [1],0.781 µg/mL
same,MIC,Klebsiella oxytoca,12.5 µg/mL
same,MIC,Staphylococcus aureus [2],0.391 µg/mL
same,MIC,Enterococcus faecium,12.5 µg/mL
same,MIC,Streptococcus pyogenes,0.049 µg/mL
same,MIC,Staphylococcus aureus [3],0.391 µg/mL
same,MIC,Pseudomonas aeruginosa [4],6.25 µg/mL
same,MIC,Salmonella typhimurium,1.56 µg/mL
same,MIC,Enterobacter cloacae,6.25 µg/mL
same,MIC,Pseudomonas aeruginosa [5],100 µg/mL
same,MIC,Escherichia coli [6],0.781 µg/mL
CCC(C)[C@@H](O)C1=C(C(=O)[O-])N2C(=O)[C@H]([C@@H](C)O)C2[C@H]1C.[Na+] (some centres not stated),MIC,Klebsiella aerogenes,3.12 µg/mL
same,MIC,Escherichia coli [1],0.195 µg/mL
same,MIC,Klebsiella oxytoca,3.12 µg/mL
same,MIC,Staphylococcus aureus [2],0.098 µg/mL
same,MIC,Enterococcus faecium,1.56 µg/mL
same,MIC,Streptococcus pyogenes,0.013 µg/mL
same,MIC,Staphylococcus aureus [3],0.098 µg/mL
same,MIC,Pseudomonas aeruginosa [4],1.56 µg/mL
same,MIC,Salmonella typhimurium,0.195 µg/mL
same,MIC,Enterobacter cloacae,3.12 µg/mL
same,MIC,Pseudomonas aeruginosa [5],100 µg/mL
same,MIC,Escherichia coli [6],0.195 µg/mL
C[C@H]1C([C@@H](O)C2CC2)=C(C(=O)[O-])N2C(=O)[C@H]([C@@H](C)O)C12.[Na+] (some centres not stated),MIC,Klebsiella aerogenes,0.781 µg/mL
same,MIC,Escherichia coli [1],1.56 µg/mL
same,MIC,Klebsiella oxytoca,6.25 µg/mL
same,MIC,Staphylococcus aureus [2],0.195 µg/mL
same,MIC,Enterococcus faecium,3.12 µg/mL
same,MIC,Streptococcus pyogenes,0.098 µg/mL
same,MIC,Staphylococcus aureus [3],0.781 µg/mL
same,MIC,Pseudomonas aeruginosa [4],3.12 µg/mL
same,MIC,Salmonella typhimurium,1.56 µg/mL
same,MIC,Enterobacter cloacae,0.781 µg/mL
same,MIC,Pseudomonas aeruginosa [5],100 µg/mL
same,MIC,Escherichia coli [6],0.195 µg/mL
